We go through two compounds from patent US20220105081A1 (priority 2020, published 2022).

Entries after “also recorded” stand apart in the source; their conditions may differ.

In data set [1] the target is CHRM3 (Cholinergic Muscarinic Receptor 3) (Homo sapiens, UniProt P20309). As to the kind of experiment: DiscoverX GPCR Max Panel screen. In kind it is cell-based. To be noted: VDM-001 at 30 μM; Assay Mode Antagonist. As for the experimental part:
(§1) In Example 2, DiscoverX platform screening (GPCR Max Panel) of VDM-001(composition of formula I)) at a concentration of 30 μM (the IC50 for VDM-001 from the GTPgS studies) was conducted to confirm the data from the GTPgS study and to determine broad selectivity of over 336 protein targets. MOR antagonism was confirmed (87% activity) along with other targets with >50%. Overall 13 proteins were engaged by VDM-001 with greater than 50% activity.

The target in data set [2] is OPRL1 (Nociceptin 1 receptor) (Homo sapiens, UniProt P41146). Put plainly: DiscoverX GPCR Max Panel screen. In kind it is cell-based. To be noted: VDM-001 at 30 μM; Assay Mode Antagonist. As for the experimental part:
as §1

The target in data set [3] is HTR1B (Serotonin 1B receptor) (Homo sapiens, UniProt P28222). Put plainly: DiscoverX GPCR Max Panel screen. In kind it is cell-based. The following applies: VDM-001 at 30 μM; Assay Mode Antagonist. Here is the method:
as §1

Data set [4] addresses T1, CHRM1 (Cholinergic Muscarinic Receptor 1) (Homo sapiens, UniProt P11229).
T1 sequence (P11229 1-460): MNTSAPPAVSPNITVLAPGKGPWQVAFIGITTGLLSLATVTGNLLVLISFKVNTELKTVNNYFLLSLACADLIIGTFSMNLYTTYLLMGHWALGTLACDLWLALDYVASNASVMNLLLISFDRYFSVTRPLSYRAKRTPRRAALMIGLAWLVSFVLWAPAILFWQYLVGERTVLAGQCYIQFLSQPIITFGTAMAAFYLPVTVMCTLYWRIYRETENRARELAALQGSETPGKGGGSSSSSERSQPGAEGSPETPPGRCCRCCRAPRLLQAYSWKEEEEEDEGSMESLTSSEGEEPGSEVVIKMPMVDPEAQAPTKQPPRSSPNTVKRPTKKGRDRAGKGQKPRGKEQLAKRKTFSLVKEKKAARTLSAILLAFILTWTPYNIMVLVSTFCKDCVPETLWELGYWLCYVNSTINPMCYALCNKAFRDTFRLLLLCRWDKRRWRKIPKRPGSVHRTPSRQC
As to the kind of experiment: DiscoverX GPCR Max Panel screen. Type of data set: cell-based. To be noted: VDM-001 at 30 μM; Assay Mode Antagonist. As for the experimental part:
as §1

The target in data set [5] is T2, ADRA1B (Alpha 1B adrenergic receptor) (Homo sapiens, UniProt P35368).
T2 sequence (P35368 1-520): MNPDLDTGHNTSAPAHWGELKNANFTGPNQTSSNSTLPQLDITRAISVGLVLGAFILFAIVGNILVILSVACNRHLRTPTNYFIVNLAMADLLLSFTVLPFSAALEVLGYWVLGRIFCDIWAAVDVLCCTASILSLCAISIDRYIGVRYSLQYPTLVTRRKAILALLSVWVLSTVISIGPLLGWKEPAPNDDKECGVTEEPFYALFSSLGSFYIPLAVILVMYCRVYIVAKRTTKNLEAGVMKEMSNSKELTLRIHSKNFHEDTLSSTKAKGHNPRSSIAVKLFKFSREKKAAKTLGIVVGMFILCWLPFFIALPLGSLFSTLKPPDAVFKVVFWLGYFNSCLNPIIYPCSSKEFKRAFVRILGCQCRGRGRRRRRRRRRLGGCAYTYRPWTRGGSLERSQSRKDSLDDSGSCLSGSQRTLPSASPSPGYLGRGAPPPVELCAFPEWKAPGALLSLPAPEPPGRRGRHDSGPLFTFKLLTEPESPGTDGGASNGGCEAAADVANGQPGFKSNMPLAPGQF
Put plainly: DiscoverX GPCR Max Panel screen. Type of data set: cell-based. To be noted: VDM-001 at 30 μM; Assay Mode Antagonist. As for the experimental part:
as §1

Data set [6] addresses T3, CHRM4 (Cholinergic Muscarinic Receptor 4) (Homo sapiens, UniProt P08173).
T3 sequence (P08173 1-479): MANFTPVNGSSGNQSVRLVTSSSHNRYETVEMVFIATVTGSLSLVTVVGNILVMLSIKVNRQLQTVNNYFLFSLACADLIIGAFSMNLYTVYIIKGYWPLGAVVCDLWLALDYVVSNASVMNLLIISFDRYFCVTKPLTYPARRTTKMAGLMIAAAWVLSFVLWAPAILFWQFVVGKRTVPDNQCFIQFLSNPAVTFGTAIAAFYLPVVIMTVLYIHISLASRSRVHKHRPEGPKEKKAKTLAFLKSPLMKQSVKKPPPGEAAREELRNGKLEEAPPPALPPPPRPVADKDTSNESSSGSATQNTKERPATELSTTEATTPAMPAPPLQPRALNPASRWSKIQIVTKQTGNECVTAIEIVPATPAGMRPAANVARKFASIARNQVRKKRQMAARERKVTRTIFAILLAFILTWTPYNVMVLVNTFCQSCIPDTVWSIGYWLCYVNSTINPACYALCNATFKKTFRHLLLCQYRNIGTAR
Put plainly: DiscoverX GPCR Max Panel screen. The following applies: VDM-001 at 30 μM; Assay Mode Antagonist. In kind it is cell-based. Here is the method: as §1

Data set [7] addresses T4, HTR1A (Serotonin 1A receptor) (Homo sapiens, UniProt P08908).
T4 sequence (P08908 1-422): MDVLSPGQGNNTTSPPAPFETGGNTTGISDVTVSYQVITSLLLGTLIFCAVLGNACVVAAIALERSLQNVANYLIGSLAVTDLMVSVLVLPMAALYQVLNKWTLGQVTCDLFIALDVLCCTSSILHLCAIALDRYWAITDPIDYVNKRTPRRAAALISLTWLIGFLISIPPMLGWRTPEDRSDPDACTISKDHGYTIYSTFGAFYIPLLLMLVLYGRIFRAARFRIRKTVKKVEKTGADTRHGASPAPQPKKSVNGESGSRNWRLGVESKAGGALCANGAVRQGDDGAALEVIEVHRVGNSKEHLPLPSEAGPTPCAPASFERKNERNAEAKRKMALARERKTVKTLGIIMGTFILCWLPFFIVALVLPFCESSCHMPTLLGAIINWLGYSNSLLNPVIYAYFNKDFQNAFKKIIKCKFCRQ
Put plainly: DiscoverX GPCR Max Panel screen. To be noted: VDM-001 at 30 μM; Assay Mode Antagonist. In kind it is cell-based. Here is the method:
as §1

The target in data set [8] is T5, DRD4 (Dopamine D4 receptor) (Homo sapiens, UniProt P21917).
T5 sequence (P21917 1-419): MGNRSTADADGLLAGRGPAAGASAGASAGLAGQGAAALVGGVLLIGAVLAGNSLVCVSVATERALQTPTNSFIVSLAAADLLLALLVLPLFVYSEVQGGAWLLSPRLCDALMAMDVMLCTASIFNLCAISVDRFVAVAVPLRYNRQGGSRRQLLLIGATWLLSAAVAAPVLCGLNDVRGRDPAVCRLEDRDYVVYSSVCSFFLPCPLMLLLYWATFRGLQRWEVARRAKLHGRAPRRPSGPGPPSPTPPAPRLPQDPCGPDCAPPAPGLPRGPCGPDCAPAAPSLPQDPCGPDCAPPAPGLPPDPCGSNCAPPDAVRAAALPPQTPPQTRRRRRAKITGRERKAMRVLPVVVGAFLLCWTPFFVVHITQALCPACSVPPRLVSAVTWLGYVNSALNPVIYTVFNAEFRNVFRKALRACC
Put plainly: DiscoverX GPCR Max Panel screen. In kind it is cell-based. To be noted: VDM-001 at 30 μM; Assay Mode Antagonist. As for the experimental part: as §1

In data set [9] the target is OPRM1 (Mu Opiate receptor) (Homo sapiens, UniProt P35372). Put plainly: DiscoverX GPCR Max Panel screen. The following applies: VDM-001 at 30 μM; Assay Mode Antagonist. Type of data set: cell-based. As for the experimental part: as §1
Sequence of OPRM1 (Mu Opiate receptor) (P35372 whole entry): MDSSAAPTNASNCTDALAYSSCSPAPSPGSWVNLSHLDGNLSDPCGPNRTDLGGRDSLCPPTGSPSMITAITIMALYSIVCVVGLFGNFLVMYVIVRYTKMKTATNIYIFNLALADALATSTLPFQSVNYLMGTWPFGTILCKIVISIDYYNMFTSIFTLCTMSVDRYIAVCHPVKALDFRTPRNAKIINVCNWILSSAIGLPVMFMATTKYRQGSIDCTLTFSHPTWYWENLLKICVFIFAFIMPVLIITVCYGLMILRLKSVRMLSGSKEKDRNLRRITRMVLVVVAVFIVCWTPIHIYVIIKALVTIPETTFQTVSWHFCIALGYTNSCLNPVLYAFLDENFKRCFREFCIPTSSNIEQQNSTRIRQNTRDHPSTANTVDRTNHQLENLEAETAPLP
In data set [10] the target is HRH1 (Histamine H1 receptor) (Homo sapiens, UniProt P35367). As to the kind of experiment: DiscoverX GPCR Max Panel screen. In kind it is cell-based. The following applies: VDM-001 at 30 μM; Assay Mode Antagonist. Here is the method:
as §1

Data set [11] has as its target T6, ADRA2B (Alpha 2B adrenergic receptor) (Homo sapiens, UniProt P18089).
T6 sequence (P18089 1-450): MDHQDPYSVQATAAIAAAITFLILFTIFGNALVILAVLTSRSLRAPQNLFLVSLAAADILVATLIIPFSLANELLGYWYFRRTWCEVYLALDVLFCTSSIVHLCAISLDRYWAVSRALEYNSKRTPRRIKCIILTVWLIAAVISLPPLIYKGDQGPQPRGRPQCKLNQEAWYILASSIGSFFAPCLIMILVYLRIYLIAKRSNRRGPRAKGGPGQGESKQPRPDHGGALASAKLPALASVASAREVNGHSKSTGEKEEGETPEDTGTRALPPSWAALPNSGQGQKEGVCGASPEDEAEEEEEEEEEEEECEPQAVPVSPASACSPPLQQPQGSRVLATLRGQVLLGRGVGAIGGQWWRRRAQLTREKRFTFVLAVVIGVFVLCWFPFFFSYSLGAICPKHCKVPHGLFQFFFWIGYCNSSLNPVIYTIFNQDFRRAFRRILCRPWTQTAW
Put plainly: DiscoverX GPCR Max Panel screen. In kind it is cell-based. The following applies: VDM-001 at 30 μM; Assay Mode Antagonist. Here is the method: as §1

Data set [12] concerns the target T7, ADRA2C (Adrenergic receptor alpha 2C) (Homo sapiens, UniProt P18825).
T7 sequence (P18825 1-462): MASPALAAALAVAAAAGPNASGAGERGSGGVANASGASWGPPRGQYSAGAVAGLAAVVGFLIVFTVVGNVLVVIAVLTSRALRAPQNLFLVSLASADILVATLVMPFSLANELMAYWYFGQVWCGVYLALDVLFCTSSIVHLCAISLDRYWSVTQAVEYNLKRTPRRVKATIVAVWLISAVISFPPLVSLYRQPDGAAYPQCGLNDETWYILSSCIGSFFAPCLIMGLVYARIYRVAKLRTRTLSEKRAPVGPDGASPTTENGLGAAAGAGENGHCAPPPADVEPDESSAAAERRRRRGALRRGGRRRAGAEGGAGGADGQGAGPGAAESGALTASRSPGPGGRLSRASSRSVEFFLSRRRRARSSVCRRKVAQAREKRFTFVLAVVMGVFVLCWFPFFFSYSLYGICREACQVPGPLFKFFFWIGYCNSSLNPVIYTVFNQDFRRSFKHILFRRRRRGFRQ
Put plainly: DiscoverX GPCR Max Panel screen. The following applies: VDM-001 at 30 μM; Assay Mode Antagonist. Type of data set: cell-based. As for the experimental part: as §1

The target of data set [13] is T8, CHRM5 (Cholinergic Muscarinic Receptor 5) (Homo sapiens, UniProt P08912).
T8 sequence (P08912 1-532): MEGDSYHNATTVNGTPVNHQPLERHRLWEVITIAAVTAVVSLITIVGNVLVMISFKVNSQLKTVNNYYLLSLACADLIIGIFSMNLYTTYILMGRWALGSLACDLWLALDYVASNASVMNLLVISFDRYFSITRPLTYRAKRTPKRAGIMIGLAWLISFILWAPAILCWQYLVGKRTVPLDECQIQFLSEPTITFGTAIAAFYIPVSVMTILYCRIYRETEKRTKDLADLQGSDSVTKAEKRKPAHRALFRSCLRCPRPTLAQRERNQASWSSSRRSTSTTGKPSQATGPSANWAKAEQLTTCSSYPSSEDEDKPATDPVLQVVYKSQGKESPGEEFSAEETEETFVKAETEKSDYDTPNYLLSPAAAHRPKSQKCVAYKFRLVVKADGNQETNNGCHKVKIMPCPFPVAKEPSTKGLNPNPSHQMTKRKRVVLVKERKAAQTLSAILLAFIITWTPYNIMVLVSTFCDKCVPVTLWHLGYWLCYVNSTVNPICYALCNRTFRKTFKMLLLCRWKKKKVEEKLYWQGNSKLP
Put plainly: DiscoverX GPCR Max Panel screen. Type of data set: cell-based. To be noted: VDM-001 at 30 μM; Assay Mode Antagonist. As for the experimental part:
as §1

Data set [14] has as its system Sigma sites. As to the kind of experiment: Receptor activity profile (stated).
For data set [15], the target named is ORL1 receptors (Homo sapiens, UniProt P41146). Put plainly: Receptor activity profile (stated).
Sequence of ORL1 receptors (P41146 whole entry): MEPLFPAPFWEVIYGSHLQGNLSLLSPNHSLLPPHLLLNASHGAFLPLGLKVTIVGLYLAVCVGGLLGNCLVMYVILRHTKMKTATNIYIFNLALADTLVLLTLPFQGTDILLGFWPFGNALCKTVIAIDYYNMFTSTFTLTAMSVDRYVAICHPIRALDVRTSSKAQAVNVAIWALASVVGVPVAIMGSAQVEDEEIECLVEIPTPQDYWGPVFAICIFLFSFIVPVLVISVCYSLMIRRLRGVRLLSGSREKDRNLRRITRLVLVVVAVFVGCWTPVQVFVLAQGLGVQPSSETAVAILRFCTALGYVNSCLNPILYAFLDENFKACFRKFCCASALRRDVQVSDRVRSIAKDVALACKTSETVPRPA
Data set [16] deals with mu opioid receptors (Homo sapiens, UniProt P35372). Put plainly: Receptor activity profile (stated).
Sequence of mu opioid receptors (P35372 whole entry): as the sequence (P35372 whole entry) above
Data set [17] concerns morphine-dependent rats. As to the kind of experiment: Opiate withdrawal signs in morphine-dependent rats.
Data set [18] deals with kappa receptors (Homo sapiens, UniProt P41145). Put plainly: Receptor activity profile (stated).
Sequence of kappa receptors (P41145 whole entry): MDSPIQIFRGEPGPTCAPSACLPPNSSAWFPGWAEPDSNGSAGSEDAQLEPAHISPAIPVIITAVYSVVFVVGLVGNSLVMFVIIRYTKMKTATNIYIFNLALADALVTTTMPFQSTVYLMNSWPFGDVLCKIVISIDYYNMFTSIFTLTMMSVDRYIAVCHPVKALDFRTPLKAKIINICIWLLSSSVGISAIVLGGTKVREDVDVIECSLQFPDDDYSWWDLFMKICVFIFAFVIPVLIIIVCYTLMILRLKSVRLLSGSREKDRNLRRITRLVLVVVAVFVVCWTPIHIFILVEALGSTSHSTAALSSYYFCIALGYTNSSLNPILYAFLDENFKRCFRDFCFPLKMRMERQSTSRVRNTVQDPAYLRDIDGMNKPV
Data set [19] addresses MOR (Homo sapiens, UniProt P35372). As to the kind of experiment: GTPgS studies. Type of data set: biochemical. To be noted: read-out: IC50 from the GTPgS studies.

Sequence of CHRM3 (Cholinergic Muscarinic Receptor 3) (P20309 whole entry): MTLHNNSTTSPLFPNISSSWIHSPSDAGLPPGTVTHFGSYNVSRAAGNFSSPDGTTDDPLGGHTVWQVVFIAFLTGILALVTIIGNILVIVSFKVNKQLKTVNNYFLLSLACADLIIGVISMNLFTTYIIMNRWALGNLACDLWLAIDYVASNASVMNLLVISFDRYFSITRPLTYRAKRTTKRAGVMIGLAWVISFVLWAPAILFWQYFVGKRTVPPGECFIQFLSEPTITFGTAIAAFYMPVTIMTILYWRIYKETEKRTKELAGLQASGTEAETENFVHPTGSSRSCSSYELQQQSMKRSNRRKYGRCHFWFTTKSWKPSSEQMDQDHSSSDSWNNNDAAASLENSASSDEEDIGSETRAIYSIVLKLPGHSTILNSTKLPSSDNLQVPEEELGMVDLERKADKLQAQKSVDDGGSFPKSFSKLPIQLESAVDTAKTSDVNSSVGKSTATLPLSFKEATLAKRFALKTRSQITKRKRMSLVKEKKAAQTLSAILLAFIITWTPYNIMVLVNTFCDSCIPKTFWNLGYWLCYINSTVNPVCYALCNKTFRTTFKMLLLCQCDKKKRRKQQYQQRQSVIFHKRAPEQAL
Sequence of OPRL1 (Nociceptin 1 receptor) (P41146 whole entry): as the sequence (P41146 whole entry) above
Sequence of HTR1B (Serotonin 1B receptor) (P28222 whole entry): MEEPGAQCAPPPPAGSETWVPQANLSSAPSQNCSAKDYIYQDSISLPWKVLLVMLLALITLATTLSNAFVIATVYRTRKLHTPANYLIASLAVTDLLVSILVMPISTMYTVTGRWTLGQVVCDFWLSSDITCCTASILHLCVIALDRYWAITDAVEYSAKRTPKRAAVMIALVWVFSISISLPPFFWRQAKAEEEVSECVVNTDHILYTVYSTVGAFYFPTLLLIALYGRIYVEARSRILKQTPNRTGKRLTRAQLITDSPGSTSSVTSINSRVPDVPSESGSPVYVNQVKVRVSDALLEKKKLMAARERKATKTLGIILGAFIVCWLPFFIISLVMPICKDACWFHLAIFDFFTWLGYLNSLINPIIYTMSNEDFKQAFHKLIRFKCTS
Sequence of HRH1 (Histamine H1 receptor) (P35367 whole entry): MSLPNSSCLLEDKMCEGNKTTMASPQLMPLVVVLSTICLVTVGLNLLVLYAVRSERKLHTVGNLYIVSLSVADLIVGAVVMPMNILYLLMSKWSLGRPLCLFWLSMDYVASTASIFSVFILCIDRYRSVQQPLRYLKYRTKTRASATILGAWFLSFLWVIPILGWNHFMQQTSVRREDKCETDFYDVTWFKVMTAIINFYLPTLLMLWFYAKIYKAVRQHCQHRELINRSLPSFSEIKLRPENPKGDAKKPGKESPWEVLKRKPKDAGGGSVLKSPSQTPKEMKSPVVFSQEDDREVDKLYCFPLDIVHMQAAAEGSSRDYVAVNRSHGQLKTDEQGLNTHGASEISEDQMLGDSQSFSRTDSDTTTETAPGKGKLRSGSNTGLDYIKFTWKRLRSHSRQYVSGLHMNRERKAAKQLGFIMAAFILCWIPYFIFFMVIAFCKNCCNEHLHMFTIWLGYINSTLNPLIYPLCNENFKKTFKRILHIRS
Sequence of MOR (P35372 whole entry): as the sequence (P35372 whole entry) above

As to `CCC(=O)NC1CC(C)N(CCc2ccccc2)CC1C` (stereo not drawn) [VDM-001, N-[2,5-dimethyl-1-(2-phenylethyl)piperidin-4-yl]propanamide], the Activity in [1] came to 85%; in data set [2], 54%; in data set [3], 60%; in data set [4], 72%; in [5], 84%; in [6] it was 72%. For the same compound, the Activity in data set [7] is given as 73%; in data set [8], 75%; in data set [9], 87%; in [10], 99%; in [11] it was 98%; in data set [12], 104%. Moreover, the Activity in [13] came to 74%. In addition, the “mode of action at Sigma sites” value in data set [14] was “either agonist or antagonist activity”. The “mode of action at ORL1 receptors” value in data set [15] is “antagonist”. In addition, the “mode of action at mu opioid receptors” value in data set [16] was “partial agonist”. The incidence of diarrhea entry in data set [17] (20 mg/kg, equal to the control) is “around 1%”; in [17] (40 mg/kg), “less than 20%”. Also, in data set [17] (20 or 40 mg/kg), the opiate withdrawal signs result is “minimal, if any, opiate withdrawal signs; also recorded: did not precipitate morphine withdrawal symptoms; also recorded: did not show significant withdrawal signs”. In addition, the “mode of action at kappa receptors” value in [18] is “antagonist”. Also, the IC50 in data set [19] turned out to be 30 µM.

Turning to `C=CCN1CC[C@]23c4c5ccc(O)c4O[C@H]2C(=O)CC[C@@]3(O)[C@H]1C5` [naloxone, 17-allyl-4,5a-epoxy-3,14-dihydroxymorphinan-6-one, reference compound], in data set [17] (1 mg/kg), the incidence of diarrhea result is recorded as “over 80%” and the opiate withdrawal signs entry is on record as “large opiate withdrawal signs”. Further, the opiate withdrawal signs result in data set [17] (1 mg/kg, listed as Naloxone) is listed as “precipitated a large number of withdrawal signs”.
